Data as given in US20220175836A1, “PRIMING WITH TARGETED ACTIVATED T CELLS CAN ENHANCE CHEMO RESPONSIVENESS OF CANCER CELLS” (University of Virginia Patent Foundation, priority 2019, published 2022).
Read-outs that look alike come from different tables or passages of the source.

Columns and labels:
CFPAC cells = assay: IC50 concentration in CFPAC cells; type: cell-based
BxPC-3 cells = assay: IC50 concentration in BxPC-3 cells; type: cell-based
L3.6 = assay: IC50 concentration in L3.6 cells; type: cell-based
MiaPaCa-2 = assay: IC50 concentration by MTT colorimetric assay; type: cell-based, human
Experimental: (§1) MiaPaCa-2 and PANC-1 cells were trypsinized, washed, and incubated overnight in a humidified incubator. Each condition was performed in quadruplicate with 3×10^3 cells/well on a 96-well flat bottom plate. […] After drug treatment, 15 μL of the MTT dye solution was added to each well and incubated for 4 hours in a humidified incubator. The reaction was stopped by adding 100 μL of solubilization solution and the plate was incubated for an additional hour at room temperature. The wells were mixed and the absorbance was measured at 570 nm using a Synergy HTX Plate Reader. The % inhibition was calculated using the following equation: […]

PANC-1 = assay: IC50 concentration by MTT colorimetric assay; type: cell-based, human
Experimental: as §1

Pancreatic cancer (PC) = conditions: advanced or recurrent disease patients; cited from earlier work

IC50 (CFPAC cells; no unit printed at b33, read-out: IC50 dose) [µM]	IC50 (BxPC-3 cells; Homo sapiens) [µM]	IC50 (MiaPaCa-2; Homo sapiens, MIA PaCa-2, MiaPaCa-2, 72 hours treatment, MTT) [µM]	SMILES	IC50 (CFPAC cells; read-out: IC50 concentration) [µM]	IC50 (L3.6) [µM]	IC50 (MiaPaCa-2; MiaPaCa-2, 72 hours treatment, MTT) [µM]	IC50 (MiaPaCa-2; MiaPaCa-2, no unit printed at b274) [µM]	IC50 (PANC-1; PANC-1, 72 hours treatment, MTT) [µM]	IC50 (PANC-1; PANC-1, no unit printed at b274) [µM]	IC50 (BxPC-3 cells) [µM]	median survival (Pancreatic cancer (PC)) [months]
5	14.6	–	O=c1[nH]cc(F)c(=O)[nH]1 [5FU, 5 fluorouracil]	5	–	–	–	–	–	–	–
–	–	–	N.N.[Cl][Pt][Cl] [CIS, cisplatin]	10	16	18.6	18.6	14	14	6.9	–
–	–	15.6	Nc1ccn([C@@H]2O[C@H](CO)[C@@H](O)C2(F)F)c(=O)n1 [Gem, gemcitabine]	–	12	–	–	–	–	–	6.7
